Measured values: ChEMBL document CHEMBL5506003, “Design and biological evaluation of dual tubulin/HDAC inhibitors based on millepachine for treatment of prostate cancer” (Eur J Med Chem, 2024)
pIC50: −log10 of the molar value. Active and inactive are the calls of the source. The rule behind the calls is not given here.

How the values were obtained:
PC-3 [1] = assay: Induction of mitochondrial membrane potential loss in human PC-3 cells assessed as increase in monomer JC-1 level by measuring green fluorescence intensity at 0.16 uM incubated for 24 hrs by JC-1 staining based flow cytometry analysis (reference value: 6.44%); assay type: functional
PC-3 [2] = assay: Induction of apoptosis in human PC-3 cells assessed as necrotic cells at 0.16 uM incubated for 24 hrs by Annexin V-FITC and PI staining based flow cytometry (reference value: 0.13%); assay type: functional
PC-3 [3] = assay: Induction of cell cycle arrest in human PC-3 cells assessed as G1 phase cells at 0.16 uM incubated for 24 hrs by PI staining based flow cytometry analysis (reference value: 56.17%); assay type: functional
PC-3 [4] = assay: Induction of cell cycle arrest in human PC-3 cells assessed as G2/M phase cells at 0.08 uM incubated for 24 hrs by PI staining based flow cytometry analysis (reference value: 12.83%); assay type: functional
PC-3 [5] = assay: Induction of ROS generation in human PC-3 cells at 0.08 uM incubated for 24 hrs by DCFH-DA staining based flow cytometry analysis (reference value: 2.63%); assay type: functional
[6] = biological target: T1, Protein deacetylase HDAC6 (Homo sapiens, UniProt Q9UBN7); assay: Inhibition of HDAC6 in human HeLa nuclear extracts incubated for 30 mins by fluorescence based assay; assay type: cell-free
T1 sequence (Q9UBN7 whole entry): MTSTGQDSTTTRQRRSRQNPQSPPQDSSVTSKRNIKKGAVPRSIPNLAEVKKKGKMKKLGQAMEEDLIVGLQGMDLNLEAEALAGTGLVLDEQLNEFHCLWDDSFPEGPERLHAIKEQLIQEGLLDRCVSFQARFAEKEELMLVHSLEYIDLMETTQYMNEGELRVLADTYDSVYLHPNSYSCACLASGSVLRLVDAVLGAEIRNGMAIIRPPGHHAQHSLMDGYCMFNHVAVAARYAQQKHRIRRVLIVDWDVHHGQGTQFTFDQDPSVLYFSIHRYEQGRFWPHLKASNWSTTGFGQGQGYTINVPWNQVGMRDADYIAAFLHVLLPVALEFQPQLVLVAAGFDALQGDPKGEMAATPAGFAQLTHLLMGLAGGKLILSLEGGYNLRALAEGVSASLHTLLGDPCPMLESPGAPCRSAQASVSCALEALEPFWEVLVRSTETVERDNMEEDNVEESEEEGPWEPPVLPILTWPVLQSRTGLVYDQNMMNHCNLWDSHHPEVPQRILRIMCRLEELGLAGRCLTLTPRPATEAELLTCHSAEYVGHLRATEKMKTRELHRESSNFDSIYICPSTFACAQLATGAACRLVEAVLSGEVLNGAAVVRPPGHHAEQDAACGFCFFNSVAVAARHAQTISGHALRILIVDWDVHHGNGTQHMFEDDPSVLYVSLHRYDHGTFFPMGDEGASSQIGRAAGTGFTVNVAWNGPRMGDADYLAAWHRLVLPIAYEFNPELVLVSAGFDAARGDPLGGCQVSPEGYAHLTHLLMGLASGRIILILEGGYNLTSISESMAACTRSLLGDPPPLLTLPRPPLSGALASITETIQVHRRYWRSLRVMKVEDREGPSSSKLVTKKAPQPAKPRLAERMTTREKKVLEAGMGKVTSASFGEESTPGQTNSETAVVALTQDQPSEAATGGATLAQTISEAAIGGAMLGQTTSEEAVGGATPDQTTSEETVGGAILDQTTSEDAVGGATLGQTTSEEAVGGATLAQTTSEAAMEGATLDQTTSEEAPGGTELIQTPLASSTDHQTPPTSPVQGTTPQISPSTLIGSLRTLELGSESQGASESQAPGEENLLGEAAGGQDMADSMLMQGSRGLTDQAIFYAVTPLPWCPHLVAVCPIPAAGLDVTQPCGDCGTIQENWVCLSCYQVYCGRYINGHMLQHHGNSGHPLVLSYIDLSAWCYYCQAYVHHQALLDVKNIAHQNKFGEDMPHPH

PC-3 [7] = assay: Induction of cell cycle arrest in human PC-3 cells assessed as decrease in phosphorylated […] Tyr15 by Western blotting analysis; assay type: functional, cell-based; conditions: dose 0.08-0.32 µM
Tubulin = assay: (§1) Inhibition of tubulin polymerization (unknown origin) measured after 60 mins by fluorescence based assay; assay type: protein-complex assay, Homo sapiens
Tubulin (Homo sapiens) = Tubulin (Homo sapiens) (UniProt P68371+Q9H4B7+P0DPH7+P68366+Q13509+Q71U36+P04350+Q3ZCM7+P07437+P68363+Q9BQE3+Q6PEY2+Q13885+Q9BVA1+Q9BUF5); assay: as §1; assay type: protein-complex assay
PC-3 [8] = assay: Induction of cell cycle arrest in human PC-3 cells assessed as S phase cells at 0.16 uM incubated for 24 hrs by PI staining based flow cytometry analysis (reference value: 31.7%); assay type: functional
PC-3 [9] = assay: Induction of mitochondrial membrane potential loss in human PC-3 cells assessed as decrease in JC-1 aggregate level by measuring red fluorescence intensity at 0.16 uM incubated for 24 hrs by JC-1 staining based flow cytometry analysis (reference value: 93.5%); assay type: functional; parameters: scale not given: the % may be the effect or the level left
PC-3 [10] = assay: Induction of apoptosis in human PC-3 cells assessed as upregulation of cleaved caspase-3 expression at 0.08 to 0.32 uM by Western blotting analysis; assay type: functional, cell-based; conditions: dose 0.08-0.32 µM
PC-3 [11] = assay: Induction of cell cycle arrest in human PC-3 cells assessed as G2/M phase cells at 0.32 uM incubated for 24 hrs by PI staining based flow cytometry analysis (reference value: 12.83%); assay type: functional
Histone deacetylase 2 = Histone deacetylase 2 (Homo sapiens, UniProt Q92769); assay: Inhibition of HDAC2 in human PC-3 cells assessed as increase in acetylated Histone-H3 level incubated for 24 hrs by Western blotting assay; assay type: cell-based; conditions: dose 0.08-0.32 µM
[12] = Toxicity in BALB/c nude mouse xenografted with human PC-3 cells assessed as lung damage at 10 to 20 mg/kg, iv administered every 2 days and measured after 3 weeks; assay type: organism-based; conditions: in vivo, 504 h, dose 10-20 mg/kg
PC-3 [13] = assay: Induction of apoptosis in human PC-3 cells assessed as late apoptotic cells at 0.16 uM incubated for 24 hrs by Annexin V-FITC and PI staining based flow cytometry (reference value: 1.02%); assay type: functional
PC-3 [14] = assay: Induction of cell cycle arrest in human PC-3 cells assessed as G1 phase cells at 0.08 uM incubated for 24 hrs by PI staining based flow cytometry analysis (reference value: 56.17%); assay type: functional
PC-3 [15] = assay: Induction of cell cycle arrest in human PC-3 cells assessed as G2/M phase cells at 0.16 uM incubated for 24 hrs by PI staining based flow cytometry analysis (reference value: 12.83%); assay type: functional
PC-3 [16] = assay: Cytotoxicity against human PC-3 cells incubated for 72 hrs by MTT assay; conditions: PC-3, 72 h
PC-3 [17] = assay: Induction of mitochondrial membrane potential loss in human PC-3 cells assessed as increase in monomer JC-1 level by measuring green fluorescence intensity at 0.08 uM incubated for 24 hrs by JC-1 staining based flow cytometry analysis (reference value: 6.44%); assay type: functional
PC-3 [18] = assay: Induction of mitochondrial membrane potential loss in human PC-3 cells assessed as decrease in JC-1 aggregate level by measuring red fluorescence intensity at 0.08 uM incubated for 24 hrs by JC-1 staining based flow cytometry analysis (reference value: 93.5%); assay type: functional; parameters: scale not given: the % may be the effect or the level left

Histone deacetylase 2, sequence (Q92769 whole entry): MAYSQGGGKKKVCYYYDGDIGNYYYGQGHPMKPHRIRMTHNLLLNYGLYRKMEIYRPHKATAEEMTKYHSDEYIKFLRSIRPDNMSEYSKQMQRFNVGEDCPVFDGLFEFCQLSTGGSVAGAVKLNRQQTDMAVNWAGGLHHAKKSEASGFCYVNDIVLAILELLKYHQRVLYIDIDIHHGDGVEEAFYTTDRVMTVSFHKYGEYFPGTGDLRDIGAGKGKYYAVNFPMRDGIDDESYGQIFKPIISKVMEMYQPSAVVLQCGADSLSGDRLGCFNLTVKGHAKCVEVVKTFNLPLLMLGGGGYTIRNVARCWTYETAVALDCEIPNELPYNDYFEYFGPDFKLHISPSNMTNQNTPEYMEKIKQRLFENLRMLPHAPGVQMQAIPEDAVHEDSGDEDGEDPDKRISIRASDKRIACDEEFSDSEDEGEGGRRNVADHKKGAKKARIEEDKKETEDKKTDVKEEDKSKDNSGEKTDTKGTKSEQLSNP

In the case of `COc1ccc(/C=C/C(=O)c2ccc(OC)c3c2OC(C)(C)C=C3)cc1NCC(=O)NO`, the Activity (PC-3 [1]) was 20.7%, the Activity (PC-3 [2]) was 0.47% and the Activity (PC-3 [3]) was 18.7%. The Activity (PC-3 [4]) was 25.45%, the Activity (PC-3 [5]) was 45.7% and the pIC50 [6] was 6.21. For the same compound, the Activity (PC-3 [7]) was “Active”, the pIC50 (Tubulin) was 5.32 and the inhibition (Tubulin (Homo sapiens)) was “Dose-Dependent Effect”. The Activity (PC-3 [8]) was 28.7%, the Activity (PC-3 [9]) was 77.9% and the Activity (PC-3 [10]) was “Active”. For the same compound, the Activity (PC-3 [11]) was 82.04%, the inhibition (Histone deacetylase 2) was “Dose-Dependent Effect” and the Activity [12] was “Non-Toxic”. It also gave an Activity (PC-3 [13]) of 5.28%, an Activity (PC-3 [14]) of 34.64% and an Activity (PC-3 [15]) of 50.56%. The pIC50 (PC-3 [16]) was 7.80, the Activity (PC-3 [17]) was 10.6% and the Activity (PC-3 [18]) was 88.4%.
